Results taken from ChEMBL document CHEMBL1201862, “PubChem BioAssay data set” (2004).
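Five concentrations, 48 hours, 96-well plates. GI50 marks 50% less growth.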 The source made the active and inactive calls. Cut-off read from the data, not from the text of the source: active = GI50 up to about 1.1 µM and inactive = higher.

What was measured:
Experiment in all cases: growth of human tumour cells (NCI), 48 h
SNB-75 = test system: SNB-75
M14 = test system: M14
MDA-MB-231 = test system: MDA-MB-231
NCI-H23 = test system: NCI-H23
COLO 205 = test system: COLO 205
A549 = test system: A549
HCC 2998 = test system: HCC 2998
UACC-257 = test system: UACC-257
HCT-15 = test system: HCT-15
IGROV-1 = test system: IGROV-1
SK-OV-3 = test system: SK-OV-3
RXF 393 = test system: RXF 393
Malme-3M = test system: Malme-3M
TK-10 = test system: TK-10
BT-549 = test system: BT-549
SF-539 = test system: SF-539
SR = test system: SR
RPMI-8226 = test system: RPMI-8226
SF-268 = test system: SF-268
DU-145 = test system: DU-145
EKVX = test system: EKVX
SW-620 = test system: SW-620
OVCAR-5 = test system: OVCAR-5
LOX IMVI = test system: LOX IMVI
ACHN = test system: ACHN
HOP-92 = test system: HOP-92
SK-MEL-2 = test system: SK-MEL-2
SF-295 = test system: SF-295
MCF7 = test system: MCF7
U-251 = test system: U-251
A498 = test system: A498
NCI-H522 = test system: NCI-H522
OVCAR-8 = test system: OVCAR-8
UO-31 = test system: UO-31
PC-3 = test system: PC-3
MDA-N = test system: MDA-N
Hs-578T = test system: Hs-578T
SK-MEL-5 = test system: SK-MEL-5
MDA-MB-435 = test system: MDA-MB-435
HL-60 = test system: HL-60
786-0 = test system: 786-0
NCI-H226 = test system: NCI-H226
MOLT-4 = test system: MOLT-4
SN12C = test system: SN12C
T47D = test system: T47D
K562 = test system: K562
HOP-62 = test system: HOP-62
HCT-116 = test system: HCT-116
OVCAR-3 = test system: OVCAR-3
NCI/ADR-RES = test system: NCI/ADR-RES
NCI-H460 = test system: NCI-H460
SK-MEL-28 = test system: SK-MEL-28
HT-29 = test system: HT-29
SNB-19 = test system: SNB-19
OVCAR-4 = test system: OVCAR-4
CAKI-1 = test system: CAKI-1

With `Cc1csc(CP(=O)(OC(C)C)OC(C)C)n1` the GI50 (SNB-75) was > 100 µM (inactive), the GI50 (M14) was > 100 µM (inactive) and the GI50 (MDA-MB-231) was > 100 µM (inactive). The GI50 (NCI-H23) was > 100 µM (inactive), the GI50 (COLO 205) was > 100 µM (inactive) and the GI50 (A549) was > 100 µM (inactive). For the same molecule, the GI50 (HCC 2998) was > 100 µM (inactive), the GI50 (UACC-257) was > 100 µM (inactive) and the GI50 (HCT-15) was greater than 100 µM. For the same molecule, the GI50 (IGROV-1) was > 100 µM (inactive), the GI50 (SK-OV-3) was > 100 µM (inactive) and the GI50 (RXF 393) was > 100 µM (inactive). For the same molecule, the GI50 (Malme-3M) was > 100 µM (inactive), the GI50 (TK-10) was > 100 µM (inactive) and the GI50 (BT-549) was > 100 µM (inactive). The GI50 (SF-539) was > 100 µM (inactive), the GI50 (SR) was > 100 µM (inactive) and the GI50 (RPMI-8226) was > 100 µM (inactive). The GI50 (SF-268) was > 100 µM (inactive), the GI50 (DU-145) was > 100 µM (inactive) and the GI50 (EKVX) was > 100 µM (inactive). For the same molecule, the GI50 (SW-620) was > 100 µM (inactive), the GI50 (OVCAR-5) was > 100 µM (inactive) and the GI50 (LOX IMVI) was > 100 µM (inactive). The GI50 (ACHN) was > 100 µM (inactive), the GI50 (HOP-92) was > 100 µM (inactive) and the GI50 (SK-MEL-2) was > 100 µM (inactive). The GI50 (SF-295) was > 100 µM (inactive), the GI50 (MCF7) was > 100 µM (inactive) and the GI50 (U-251) was > 100 µM (inactive). For the same molecule, the GI50 (A498) was > 100 µM (inactive), the GI50 (NCI-H522) was > 100 µM (inactive) and the GI50 (OVCAR-8) was > 100 µM (inactive). For the same molecule, the GI50 (UO-31) was 74 µM (inactive), the GI50 (PC-3) was > 100 µM (inactive) and the GI50 (MDA-N) was > 100 µM (inactive). The GI50 (Hs-578T) was > 100 µM (inactive), the GI50 (SK-MEL-5) was > 100 µM (inactive) and the GI50 (MDA-MB-435) was > 100 µM (inactive). The GI50 (HL-60) was > 100 µM (inactive), the GI50 (786-0) was > 100 µM (inactive) and the GI50 (NCI-H226) was > 100 µM (inactive). For the same molecule, the GI50 (MOLT-4) was > 100 µM (inactive), the GI50 (SN12C) was > 100 µM (inactive) and the GI50 (T47D) was > 100 µM (inactive). For the same molecule, the GI50 (K562) was > 100 µM (inactive), the GI50 (HOP-62) was > 100 µM (inactive) and the GI50 (HCT-116) was > 100 µM (inactive). For the same molecule, the GI50 (OVCAR-3) was > 100 µM (inactive), the GI50 (NCI/ADR-RES) was > 100 µM (inactive) and the GI50 (NCI-H460) was > 100 µM (inactive). The GI50 (SK-MEL-28) was > 100 µM (inactive), the GI50 (HT-29) was > 100 µM (inactive) and the GI50 (SNB-19) was > 100 µM (inactive). For the same molecule, the GI50 (OVCAR-4) was > 100 µM (inactive) and the GI50 (CAKI-1) was > 100 µM (inactive).
